# Laboratory results published in patent US9926304B2, “1-(arylmethyl)quinazoline-2,4(1H,3H)-diones as PARP inhibitors and the use thereof” (Impact Therapeutics, Inc., priority 2011, dated 2018).
# Experiments:
# [1] = tested on: Human breast cancer cell line T47D; experiment: Cell based caspase-3 activity assay: potentiation of MMS induced apoptosis; conditions: Homo sapiens, T47D, 24 h, T47D cells, 11.1 μg/ml MMS, 24 hours, intracellular caspase-3 activity; read-out: EC50 (nM), potentiation of the apoptosis inducing activity of MMS
# How it was run: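 T47D cells were exposed for 24 h to compound plus a minimally apoptotic MMS dose (medium containing 11.1 μg/ml MMS). Lysates were incubated 3 h at 37 °C with (Ac-DEVD)2-R110 caspase-3 substrate (20 μM in added buffer) and read at ex 496/em 520 nm. EC50 came from a sigmoidal fit of RFU versus log concentration.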
# [2] = tested on: BRCA-2 deficient CAPAN-1 human pancreatic cancer cells; experiment: MTT based cell viability assay: growth inhibition of BRCA-2 deficient CAPAN-1 cells; conditions: 240 h, compound alone, 10 day assay
# Text: Determination of the cell growth inhibiting activity of 1-(3-(4-(pyrimidin-2-yl)piperazine-1-carbonyl)benzyl)quinazoline-2,4(1H,3H)-dione and analogs on BRCA-2 deficient CAPAN-1 pancreatic duck cancer cells using a MTT based cell viability assay
# BRCA-deficient cancer cells are sensitive to PARP inhibition. In the presence of PARP inhibitors, BRCA-deficient cancer cells could not grow and eventually will lead to death of cells. BRCA-2 deficient CAPAN-1 human pancreatic cancer cells were used to test the growth inhibiting activity of substituted 1-(arylmethyl)quinazoline-2,4(1H,3H)-diones. Briefly, CAPAN-1 cells are grown and maintained in IMEM medium supplemented with 20% FBS. The assay takes 10 days to finish. On day 1, 6000 CAPAN-1 cells are seeded to each well of a 96-well plate. The cells are incubated at 37° C. in a cell culture incubator overnight. In the next day, serial dilutions of compounds to be tested and reference compound (AZD2281) were prepared with a 1:3 and 1:10 fashion in DMSO. Ten-fold compound solutions were made by mixing 10 μl DMSO serial dilution solutions with 90 μl fresh growth medium. The cell culture medium was removed and 180 μl fresh media with FBS and 20 μl of compound solutions were added to each well. The final concentration of DMSO was 1%. Cells were then returned to the CO2 cell culture incubator and incubated at 37° C. for two days (day 3 and day 4). On day 5, the same procedure as what was done on day 2 was repeated. Cell culture medium was removed and fresh medium containing serial dilutions of compounds or reference compounds were added. Cells were returned to the CO2 cell culture incubator and incubated for two more days. On day 8, same procedure was repeated again and fresh medium containing the testing compounds or reference compounds were added and incubated for an additional 2 days. On day 10, 20 μl of MTT reagent (5 mg/ml) was added to each well of the cell culture plate and incubated for 4 h. The cell culture media was removed and 100 μl DMSO was added to each well. The 96-well cell culture plates were shaked horizontally for 10 min and readed in a Varioskan Flash plate reader (Thermo Fisher Scientific) at 520 and 690 nm. The obtained 520 nm absorbance readings subtracting corresponding 690 nm reading were analyzed using a commercial graphic software (GraphPad Prism 5) and plotted against the Log scale of the compound concentrations.
# [3] = tested on: SW620 human colorectal cancer cells; experiment: MTT based cell viability assay: potentiation of the growth inhibiting activity of MMS; conditions: Homo sapiens, SW-620, 120 h, read-out: IC50 (nM), potentiation of the growth inhibiting activity of MMS, SW620 cells, 1.7 μg/ml MMS, 5 days (120 hours), MTT
SMILES,EC50 [1],IC50 [2],IC50 [3]
"O=C(c1cccc(Cn2c(=O)[nH]c(=O)c3ccccc32)n1)N1CCN(C(=O)C2CCCC2)CC1 [Example 69, 1-((2-(4-(Cyclopentylcarbonyl)piperazine-1-carbonyl)pyridin-6-yl)methyl)quinazoline-2,4(1H,3H)-dione]",76 nM,1980 nM,352 nM
"O=C(c1cc(Cn2c(=O)[nH]c(=O)c3c(F)cccc32)ccc1F)N1CCN(C(=O)C2CCCC2)CC1 [Example 133, 1-(3-(4-(Cyclopentylcarbonyl)piperazine-1-carbonyl)-4-fluorobenzyl)-5-fluoroquinazoline-2,4(1H,3H)-dione]",2.1 nM,22 nM,4.1 nM
"O=C(c1cc(Cn2c(=O)[nH]c(=O)c3c(F)cccc32)ccc1F)N1CCN(C2CCCCC2)CC1 [Example 212, 1-(3-(4-Cyclohexylpiperazine-1-carbonyl)-4-fluorobenzyl)-5-fluoroquinazoline-2,4(1H,3H)-dione]",45 nM,> 10000 nM,19 nM
"O=C(c1cc(Cn2c(=O)[nH]c(=O)c3ccccc32)ccc1F)N1CCN(C(=O)C2CCCCC2)CC1 [Example 41, 1-(3-(4-(Cyclohexylcarbonyl)piperazine-1-carbonyl)-4-fluorobenzyl)quinazoline-2,4(1H,3H)-dione]",2.2 nM,208 nM,11 nM
"O=C(c1cc(Cn2c(=O)[nH]c(=O)c3cc(F)ccc32)ccc1F)N1CCN(c2ccccn2)CC1 [Example 145, 6-Fluoro-1-(4-fluoro-3-(4-(pyridin-2-yl)piperazine-1-carbonyl)benzyl)quinazoline-2,4(1H,3H)-dione]",6.5 nM,146 nM,12 nM
"O=C(c1ccc(F)c(Cn2c(=O)[nH]c(=O)c3ccccc32)c1)N1CCN(C(=O)C2CCCC2)CC1 [Example 48, 1-(3-(4-(Cyclopentylcarbonyl)piperazine-1-carbonyl)-6-fluorobenzyl)quinazoline-2,4(1H,3H)-dione]",8.2 nM,168 nM,56 nM
"O=C(c1cc(Cn2c(=O)[nH]c(=O)c3c(F)cccc32)ccc1F)N1CCN(CC2CCCCC2)CC1 [Example 217, 1-(3-(4-(Cyclohexylmethyl)piperazine-1-carbonyl)-4-fluorobenzyl)-5-fluoroquinazoline-2,4(1H,3H)-dione]",19 nM,460 nM,2.5 nM
"O=C(c1cccc(Cn2c(=O)[nH]c(=O)c3ccccc32)c1)N1CCN(c2nsc3ccccc23)CC1 [Example 27, 1-(3-(4-(Benzo[d]isothiazol-3-yl)piperazine-1-carbonyl)benzyl)quinazoline-2,4(1H,3H)-dione]",51 nM,281 nM,83 nM
"O=C(c1ccc(F)c(Cn2c(=O)[nH]c(=O)c3c(F)cccc32)c1)N1CCN(C(=O)C2CCCCC2)CC1 [Example 157, 1-(3-(4-(Cyclohexylcarbonyl)piperazine-1-carbonyl)-6-fluorobenzyl)-5-fluoroquinazoline-2,4(1H,3H)-dione]",26 nM,202 nM,18 nM
"O=C(c1cccs1)N1CCN(C(=O)c2cc(Cn3c(=O)[nH]c(=O)c4ccccc43)ccc2F)CC1 [Example 46, 1-(4-Fluoro-3-(4-(thiophene-2-carbonyl)piperazine-1-carbonyl)benzyl)quinazoline-2,4(1H,3H)-dione]",6.6 nM,446 nM,21 nM
"O=C(c1cc(Cn2c(=O)[nH]c(=O)c3c(Cl)cccc32)ccc1F)N1CCN(C(=O)C2CCC2)CC1 [Example 168, 5-Chloro-1-(3-(4-(cyclobutylcarbonyl)piperazine-1-carbonyl)-4-fluorobenzyl)quinazoline-2,4(1H,3H)-dione]",3.8 nM,1460 nM,15 nM
"Cc1ccc2c(c1)c(=O)[nH]c(=O)n2Cc1ccc(F)c(C(=O)N2CCN(C(=O)C3CCCC3)CC2)c1 [Example 85, 1-(3-(4-(Cyclopentylcarbonyl)piperazine-1-carbonyl)-4-fluorobenzyl)-6-methylquinazoline-2,4(1H,3H)-dione]",7.6 nM,291 nM,25 nM

# More lines, now with the values ahead:
EC50 [1],IC50 [2],IC50 [3],SMILES
6.8 nM,167 nM,24 nM,"O=C(c1cc(F)cc(Cn2c(=O)[nH]c(=O)c3cc(F)ccc32)c1)N1CCN(c2ncccn2)CC1 [Example 186, 6-Fluoro-1-(5-fluoro-3-(4-(pyrimidin-2-yl)piperazine-1-carbonyl)benzyl)quinazoline-2,4(1H,3H)-dione]"
1.7 nM,77 nM,27 nM,"O=C(c1cccc(Cn2c(=O)[nH]c(=O)c3cc(Cl)ccc32)c1)N1CCN(c2ncccn2)CC1 [Example 111, 6-Chloro-1-(3-(4-(pyrimidin-2-yl)piperazine-1-carbonyl)benzyl)quinazoline-2,4(1H,3H)-dione]"
63 nM,421 nM,99 nM,"Cc1ccc2c(c1)c(=O)[nH]c(=O)n2Cc1cccc(C(=O)N2CCN(c3ncccn3)CC2)c1 [Example 81, 6-Methyl-1-(3-(4-(pyrimidin-2-yl)piperazine-1-carbonyl)benzyl)quinazoline-2,4(1H,3H)-dione]"
16 nM,1180 nM,30 nM,"O=C(c1ccc(Cl)c(Cn2c(=O)[nH]c(=O)c3ccccc32)c1)N1CCN(c2ncccn2)CC1 [Example 56, 1-(6-Chloro-3-(4-(pyrimidin-2-yl)piperazine-1-carbonyl)benzyl)quinazoline-2,4(1H,3H)-dione]"
20 nM,735 nM,26 nM,"O=C(c1cc(Cn2c(=O)[nH]c(=O)c3ccccc32)ccc1F)N1CCN(c2ccccn2)CC1 [Example 24, 1-(4-Fluoro-3-(4-(pyridin-2-yl)piperazine-1-carbonyl)benzyl)quinazoline-2,4(1H,3H)-dione]"
13 nM,173 nM,37 nM,"O=C(c1ccc(F)c(Cn2c(=O)[nH]c(=O)c3ccccc32)c1)N1CCN(c2ncccn2)CC1 [Example 50, 1-(6-Fluoro-3-(4-(pyrimidin-2-yl)piperazine-1-carbonyl)benzyl)quinazoline-2,4(1H,3H)-dione]"
11 nM,2540 nM,78 nM,"O=C(c1cc(Cn2c(=O)[nH]c(=O)c3ccccc32)ccc1F)N1CCN(c2cnccn2)CC1 [Example 42, 1-(4-Fluoro-3-(4-(pyrazin-2-yl)piperazine-1-carbonyl)benzyl)quinazoline-2,4(1H,3H)-dione]"
373 nM,3190 nM,417 nM,"O=C(c1cc(Cn2c(=O)[nH]c(=O)c3ccccc32)ccc1Cl)N1CCN(c2ncccn2)CC1 [Example 65, 1-(4-Chloro-3-(4-(pyrimidin-2-yl)piperazine-1-carbonyl)benzyl)quinazoline-2,4(1H,3H)-dione]"
4.9 nM,948 nM,19 nM,"O=C(c1cccc(Cn2c(=O)[nH]c(=O)c3cc(F)ccc32)n1)N1CCN(c2ncccn2)CC1 [Example 199, 6-Fluoro-1-((2-(4-(pyrimidin-2-yl)piperazine-1-carbonyl)pyridin-6-yl)methyl)quinazoline-2,4(1H,3H)-dione]"
16 nM,176 nM,25 nM,"O=C(c1ccc(F)c(Cn2c(=O)[nH]c(=O)c3cc(F)ccc32)c1)N1CCN(c2ccccn2)CC1 [Example 150, 6-Fluoro-1-(6-fluoro-3-(4-(pyridin-2-yl)piperazine-1-carbonyl)benzyl)quinazoline-2,4(1H,3H)-dione]"
405 nM,3550 nM,506 nM,"O=C(c1cccc(Cn2c(=O)[nH]c(=O)c3ccc(Cl)cc32)c1)N1CCN(c2ncccn2)CC1 [Example 161, 7-Chloro-1-(3-(4-(pyrimidin-2-yl)piperazine-1-carbonyl)benzyl)quinazoline-2,4(1H,3H)-dione]"
